{
  "source": "the NIST ThermoML archive (doi:10.1016/j.jct.2015.08.031)",
  "assay": "molar heat capacity at constant pressure",
  "settings": "101.33 kPa, Crystal, relaxation calorimetry",
  "note": "Numbers after ± are expanded uncertainties.",
  "data": [
    {"smiles": "[Al+3].[Al+3].[O-2].[O-2].[O-2]", "note": "[aluminum oxide (Al2O3)]", "values": [
      {"measurement": "molar heat capacity at constant pressure", "setting": "1.93 K", "value": "7.666e-05 ± 6.6e-06", "unit": "J/K/mol"},
      {"measurement": "molar heat capacity at constant pressure", "setting": "2.15 K", "value": "9.655e-05 ± 7.9e-06", "unit": "J/K/mol"},
      {"measurement": "molar heat capacity at constant pressure", "setting": "2.39 K", "value": "0.0001341 ± 1e-05", "unit": "J/K/mol"},
      {"measurement": "molar heat capacity at constant pressure", "setting": "2.65 K", "value": "0.0001785 ± 1.3e-05", "unit": "J/K/mol"},
      {"measurement": "molar heat capacity at constant pressure", "setting": "2.95 K", "value": "0.0002464 ± 1.8e-05", "unit": "J/K/mol"},
      {"measurement": "molar heat capacity at constant pressure", "setting": "3.28 K", "value": "0.0003342 ± 2.4e-05", "unit": "J/K/mol"},
      {"measurement": "molar heat capacity at constant pressure", "setting": "3.64 K", "value": "0.0004613 ± 3.3e-05", "unit": "J/K/mol"},
      {"measurement": "molar heat capacity at constant pressure", "setting": "4.04 K", "value": "0.0006149 ± 4.4e-05", "unit": "J/K/mol"},
      {"measurement": "molar heat capacity at constant pressure", "setting": "4.49 K", "value": "0.0008379 ± 5.9e-05", "unit": "J/K/mol"},
      {"measurement": "molar heat capacity at constant pressure", "setting": "4.98 K", "value": "0.001136 ± 8e-05", "unit": "J/K/mol"},
      {"measurement": "molar heat capacity at constant pressure", "setting": "5.523 K", "value": "0.001541 ± 0.00011", "unit": "J/K/mol"},
      {"measurement": "molar heat capacity at constant pressure", "setting": "6.13 K", "value": "0.00216 ± 0.00015", "unit": "J/K/mol"},
      {"measurement": "molar heat capacity at constant pressure", "setting": "6.8 K", "value": "0.002926 ± 0.00021", "unit": "J/K/mol"},
      {"measurement": "molar heat capacity at constant pressure", "setting": "7.54 K", "value": "0.004006 ± 0.00028", "unit": "J/K/mol"},
      {"measurement": "molar heat capacity at constant pressure", "setting": "8.36 K", "value": "0.005388 ± 0.00038", "unit": "J/K/mol"},
      {"measurement": "molar heat capacity at constant pressure", "setting": "9.27 K", "value": "0.007325 ± 0.00051", "unit": "J/K/mol"},
      {"measurement": "molar heat capacity at constant pressure", "setting": "10.28 K", "value": "0.009979 ± 0.0007", "unit": "J/K/mol"},
      {"measurement": "molar heat capacity at constant pressure", "setting": "11.37 K", "value": "0.0134 ± 0.00094", "unit": "J/K/mol"},
      {"measurement": "molar heat capacity at constant pressure", "setting": "12.61 K", "value": "0.01843 ± 0.0013", "unit": "J/K/mol"},
      {"measurement": "molar heat capacity at constant pressure", "setting": "13.99 K", "value": "0.02532 ± 0.0018", "unit": "J/K/mol"},
      {"measurement": "molar heat capacity at constant pressure", "setting": "15.52 K", "value": "0.03431 ± 0.0024", "unit": "J/K/mol"},
      {"measurement": "molar heat capacity at constant pressure", "setting": "17.22 K", "value": "0.04685 ± 0.0033", "unit": "J/K/mol"},
      {"measurement": "molar heat capacity at constant pressure", "setting": "19.12 K", "value": "0.06451 ± 0.0045", "unit": "J/K/mol"},
      {"measurement": "molar heat capacity at constant pressure", "setting": "21.23 K", "value": "0.08864 ± 0.0036", "unit": "J/K/mol"},
      {"measurement": "molar heat capacity at constant pressure", "setting": "23.58 K", "value": "0.1229 ± 0.005", "unit": "J/K/mol"},
      {"measurement": "molar heat capacity at constant pressure", "setting": "26.17 K", "value": "0.1719 ± 0.007", "unit": "J/K/mol"},
      {"measurement": "molar heat capacity at constant pressure", "setting": "29.08 K", "value": "0.2396 ± 0.0097", "unit": "J/K/mol"},
      {"measurement": "molar heat capacity at constant pressure", "setting": "32.22 K", "value": "0.3344 ± 0.014", "unit": "J/K/mol"},
      {"measurement": "molar heat capacity at constant pressure", "setting": "35.73 K", "value": "0.4743 ± 0.019", "unit": "J/K/mol"},
      {"measurement": "molar heat capacity at constant pressure", "setting": "39.62 K", "value": "0.6761 ± 0.027", "unit": "J/K/mol"},
      {"measurement": "molar heat capacity at constant pressure", "setting": "43.94 K", "value": "0.9644 ± 0.039", "unit": "J/K/mol"},
      {"measurement": "molar heat capacity at constant pressure", "setting": "48.73 K", "value": "1.379 ± 0.056", "unit": "J/K/mol"},
      {"measurement": "molar heat capacity at constant pressure", "setting": "54.06 K", "value": "1.968 ± 0.08", "unit": "J/K/mol"},
      {"measurement": "molar heat capacity at constant pressure", "setting": "59.98 K", "value": "2.789 ± 0.11", "unit": "J/K/mol"},
      {"measurement": "molar heat capacity at constant pressure", "setting": "66.54 K", "value": "3.91 ± 0.16", "unit": "J/K/mol"},
      {"measurement": "molar heat capacity at constant pressure", "setting": "73.85 K", "value": "5.425 ± 0.22", "unit": "J/K/mol"},
      {"measurement": "molar heat capacity at constant pressure", "setting": "81.95 K", "value": "7.444 ± 0.3", "unit": "J/K/mol"},
      {"measurement": "molar heat capacity at constant pressure", "setting": "90.93 K", "value": "9.991 ± 0.41", "unit": "J/K/mol"},
      {"measurement": "molar heat capacity at constant pressure", "setting": "100.91 K", "value": "13.15 ± 0.53", "unit": "J/K/mol"},
      {"measurement": "molar heat capacity at constant pressure", "setting": "111.18 K", "value": "16.79 ± 0.68", "unit": "J/K/mol"},
      {"measurement": "molar heat capacity at constant pressure", "setting": "121.13 K", "value": "20.54 ± 0.83", "unit": "J/K/mol"},
      {"measurement": "molar heat capacity at constant pressure", "setting": "131.17 K", "value": "24.48 ± 0.99", "unit": "J/K/mol"},
      {"measurement": "molar heat capacity at constant pressure", "setting": "141.28 K", "value": "28.54 ± 1.2", "unit": "J/K/mol"},
      {"measurement": "molar heat capacity at constant pressure", "setting": "151.4 K", "value": "32.54 ± 1.3", "unit": "J/K/mol"},
      {"measurement": "molar heat capacity at constant pressure", "setting": "161.47 K", "value": "36.62 ± 1.5", "unit": "J/K/mol"},
      {"measurement": "molar heat capacity at constant pressure", "setting": "171.56 K", "value": "40.51 ± 1.6", "unit": "J/K/mol"},
      {"measurement": "molar heat capacity at constant pressure", "setting": "181.6 K", "value": "44.37 ± 1.8", "unit": "J/K/mol"},
      {"measurement": "molar heat capacity at constant pressure", "setting": "191.67 K", "value": "48.13 ± 2", "unit": "J/K/mol"},
      {"measurement": "molar heat capacity at constant pressure", "setting": "201.78 K", "value": "51.63 ± 2.1", "unit": "J/K/mol"},
      {"measurement": "molar heat capacity at constant pressure", "setting": "211.87 K", "value": "55.13 ± 2.2", "unit": "J/K/mol"},
      {"measurement": "molar heat capacity at constant pressure", "setting": "221.94 K", "value": "58.53 ± 2.4", "unit": "J/K/mol"},
      {"measurement": "molar heat capacity at constant pressure", "setting": "232 K", "value": "61.73 ± 2.5", "unit": "J/K/mol"},
      {"measurement": "molar heat capacity at constant pressure", "setting": "241.98 K", "value": "64.63 ± 2.6", "unit": "J/K/mol"},
      {"measurement": "molar heat capacity at constant pressure", "setting": "252.05 K", "value": "67.6 ± 2.7", "unit": "J/K/mol"},
      {"measurement": "molar heat capacity at constant pressure", "setting": "262.17 K", "value": "70.28 ± 2.9", "unit": "J/K/mol"},
      {"measurement": "molar heat capacity at constant pressure", "setting": "272.22 K", "value": "72.77 ± 3", "unit": "J/K/mol"},
      {"measurement": "molar heat capacity at constant pressure", "setting": "282.18 K", "value": "75.28 ± 3.1", "unit": "J/K/mol"},
      {"measurement": "molar heat capacity at constant pressure", "setting": "292.31 K", "value": "77.45 ± 3.1", "unit": "J/K/mol"},
      {"measurement": "molar heat capacity at constant pressure", "setting": "297.27 K", "value": "78.3 ± 3.2", "unit": "J/K/mol"},
      {"measurement": "molar heat capacity at constant pressure", "setting": "302.27 K", "value": "79.34 ± 3.2", "unit": "J/K/mol"},
      {"measurement": "molar heat capacity at constant pressure", "setting": "302.29 K", "value": "79.63 ± 3.2", "unit": "J/K/mol"},
      {"measurement": "molar heat capacity at constant pressure", "setting": "307.31 K", "value": "80.41 ± 3.3", "unit": "J/K/mol"},
      {"measurement": "molar heat capacity at constant pressure", "setting": "312.34 K", "value": "81.4 ± 3.3", "unit": "J/K/mol"},
      {"measurement": "molar heat capacity at constant pressure", "setting": "317.3 K", "value": "82.41 ± 3.3", "unit": "J/K/mol"},
      {"measurement": "molar heat capacity at constant pressure", "setting": "322.32 K", "value": "83.31 ± 3.4", "unit": "J/K/mol"},
      {"measurement": "molar heat capacity at constant pressure", "setting": "327.42 K", "value": "84.26 ± 3.4", "unit": "J/K/mol"},
      {"measurement": "molar heat capacity at constant pressure", "setting": "332.46 K", "value": "85.09 ± 3.5", "unit": "J/K/mol"},
      {"measurement": "molar heat capacity at constant pressure", "setting": "337.41 K", "value": "85.84 ± 3.5", "unit": "J/K/mol"},
      {"measurement": "molar heat capacity at constant pressure", "setting": "342.44 K", "value": "86.73 ± 3.5", "unit": "J/K/mol"},
      {"measurement": "molar heat capacity at constant pressure", "setting": "347.58 K", "value": "87.72 ± 3.6", "unit": "J/K/mol"},
      {"measurement": "molar heat capacity at constant pressure", "setting": "352.67 K", "value": "88.65 ± 3.6", "unit": "J/K/mol"},
      {"measurement": "molar heat capacity at constant pressure", "setting": "357.7 K", "value": "89.47 ± 3.6", "unit": "J/K/mol"},
      {"measurement": "molar heat capacity at constant pressure", "setting": "362.73 K", "value": "90.24 ± 3.7", "unit": "J/K/mol"},
      {"measurement": "molar heat capacity at constant pressure", "setting": "367.75 K", "value": "90.97 ± 3.7", "unit": "J/K/mol"},
      {"measurement": "molar heat capacity at constant pressure", "setting": "372.77 K", "value": "91.84 ± 3.7", "unit": "J/K/mol"},
      {"measurement": "molar heat capacity at constant pressure", "setting": "377.77 K", "value": "92.8 ± 3.8", "unit": "J/K/mol"},
      {"measurement": "molar heat capacity at constant pressure", "setting": "382.79 K", "value": "93.27 ± 3.8", "unit": "J/K/mol"},
      {"measurement": "molar heat capacity at constant pressure", "setting": "387.76 K", "value": "94.14 ± 3.8", "unit": "J/K/mol"},
      {"measurement": "molar heat capacity at constant pressure", "setting": "392.76 K", "value": "95.04 ± 3.9", "unit": "J/K/mol"},
      {"measurement": "molar heat capacity at constant pressure", "setting": "397.77 K", "value": "95.81 ± 3.9", "unit": "J/K/mol"}
    ]}
  ]
}
